Measurements from patent US10196391B2 (Hoffmann-La Roche Inc., priority 2014, dated 2019).

The compounds below were run on HBsAg (assay: HBsAg assay (CLIA) in HepG2.2.15 cells). Conditions: Hepatitis B virus, HepG2.2.15, read-out: IC50 (HBsAg assay).
Type: cell-based, HBV
Summary of the method: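 HepG2.2.15 cells (1.5×10^4/well, duplicate) treated with three-fold compound dilutions, 1% DMSO final, DMSO as no-drug control. Secreted HBsAg in supernatant quantified semi-quantitatively by chemiluminescence immunoassay; IC50 is concentration reducing HBsAg 50% versus no-drug control.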

Q: Which IC50 does the source give for `CS(=O)(=O)c1ccc(N2CCc3nc(-c4ccccn4)nc(O)c3C2)cc1` [Example 80, 6-(4-methylsulfonylphenyl)-2-(2-pyridyl)-3,5,7,8-tetrahydropyrido-[4,3-d]pyrimidin-4-one] here?
A: 5940 nM

Q: `COc1cc(N2CCc3nc(-c4ncccn4)ncc3C2)cc(F)n1` [Example 112, 6-(2-fluoro-6-methoxy-4-pyridyl)-2-pyrimidin-2-yl-7,8-dihydro-5H-pyrido[4,3-d]pyrimidine] was tested. Which IC50 did it give?
A: 553 nM

Q: Which IC50 does the source give for `Clc1cc(Cl)nc(N2CCc3nc(-c4ncccn4)ncc3C2)c1` [Example 113, 6-(4,6-dichloro-2-pyridyl)-2-pyrimidin-2-yl-7,8-dihydro-5H-pyrido[4,3-d]pyrimidine] here?
A: 161 nM

Q: `Clc1cc(N2CCc3nc(-c4ncccn4)ncc3C2)cc(Cl)n1` [Example 114, 6-(2,6-dichloro-4-pyridyl)-2-pyrimidin-2-yl-7,8-dihydro-5H-pyrido[4,3-d]pyrimidine] was tested. Which IC50 did it give?
A: 1170 nM

Q: How did the IC50 turn out when `COc1cc(Cl)cc(N2CCc3nc(-c4ncccn4)ncc3C2)n1` [Example 115, 6-(4-chloro-6-methoxy-2-pyridyl)-2-pyrimidin-2-yl-7,8-dihydro-5H-pyrido[4,3-d]pyrimidine] was run?
A: 352 nM

Q: For `COc1cc(N2CCc3nc(-c4ncccn4)ncc3C2)cc(Cl)n1` [Example 116, 6-(2-chloro-6-methoxy-4-pyridyl)-2-pyrimidin-2-yl-7,8-dihydro-5H-pyrido[4,3-d]pyrimidine], which IC50 is on record?
A: 530 nM

Q: For `COc1cc(F)cc(N2CCc3nc(-c4ncccn4)ncc3C2)c1` [Example 117, 6-(3-fluoro-5-methoxy-phenyl)-2-pyrimidin-2-yl-7,8-dihydro-5H-pyrido[4,3-d]pyrimidine], which IC50 is on record?
A: 157 nM

Q: Which IC50 does the source give for `Fc1cc(OC(F)(F)F)cc(N2CCc3nc(-c4ncccn4)ncc3C2)c1` [Example 118, 6-[3-fluoro-5-(trifluoromethoxy)phenyl]-2-pyrimidin-2-yl-7,8-dihydro-5H-pyrido[4,3-d]pyrimidine] here?
A: 4980 nM

Q: For `c1cnc(-c2ncc3c(n2)CCN(c2nccs2)C3)nc1` [Example 119, 2-(2-pyrimidin-2-yl-7,8-dihydro-5H-pyrido[4,3-d]pyrimidin-6-yl)thiazole], which IC50 is on record?
A: 6080 nM

These compounds were tested on HBV DNA (assay: HBV DNA assay (real-time qPCR) in HepG2.2.15 cells). Conditions: Hepatitis B virus, 144 h, extracellular HBV DNA, 6 days, read-out: IC50 (Anti HBV DNA production activity).
Type: cell-based
Protocol: HepG2.2.15 cells (Acs et al. Proc Natl Acad Sci USA, 84, (1987), 4641-4), a constitutively HBV-expressing cell line were cultured in DMEM+Glutamax-I medium (Invitrogen, Carlsbad, Calif., USA), supplemented with 10% fetal bovine serum (Invitrogen) and G418 (Invitrogen) at a final concentration of 200 mg/L and maintained in 5% CO2 at 37° C.
The assay employs real-time qPCR (TaqMan) to directly measure extracellular HBV DNA copy number. HepG2.2.15 cells were plated in 96-well microtiter plates. Only the interior wells were utilized to reduce “edge effects” observed during cell culture, the exterior wells were filled with complete medium to help minimize sample evaporation. On the following day, the HepG2.2.15 cells were washed and the medium was replaced with complete medium containing various concentrations of a test compound in triplicate. 3TC was used as the positive control, while media alone was added to cells as a negative control (virus control, VC). Three days later, the culture medium was replaced with fresh medium containing the appropriately diluted drug. Six days following the initial administration of the test compound, the cell culture supernatant was collected, treated with pronase and then used in a real-time qPCR/TaqMan assay to determine HBV DNA copy numbers. Antiviral activity was calculated from the reduction in HBV DNA levels (IC50). […]

Q: With `CS(=O)(=O)c1ccc(N2CCc3nc(-c4ccccn4)nc(O)c3C2)cc1` [Example 80, 6-(4-methylsulfonylphenyl)-2-(2-pyridyl)-3,5,7,8-tetrahydropyrido-[4,3-d]pyrimidin-4-one] as the compound, how does the IC50 read?
A: 160 nM
